According to patent US5644059A, “1,4-dihydropyridine derivatives and methods of producing the same” (Fujirebio Inc., priority 1990, dated 1997):

Tested on: platelet aggregation
Test: Test for platelet aggregation-inhibiting activity of rabbit (PAF-induced aggregation in platelet rich plasma)
Format: cell-based
Parameters: dose or concentration left out as unconfirmed
Conditions: rabbit PRP, 37°C, 10 minutes incubation, aggregation by PAF (10 μl); test compound concentration not given
Description: 2. Test for platelet aggregation-inhibiting activity of rabit
A blood of a rabbit (Japanese white; male; 2.5-3.0 kg) was exsanguinated from a carotid of the rabbit, and nine parts of the blood were mixed with one part of a 3.8% aqueous solution of sodium citrate. The mixture was centrifuged at 1100 rpm at 20°C. for 15 minutes. The upper layer is a platelet rich plasma (PRP), and the lower layer was centrifuged at 2500 rpm at 20° C. for 10 minutes, so that a platelet poor plasma (PPP) was obtained.
10 μl of a solution of the compound to be tested was added to 200 μl of PRP, and the mixture was subjected to incubation at 37°C. for 10 minutes. To the mixture was added 10 μl of a platelet activating factor (PAF)(10 mg/ml). The agglutination was measured by Agricometer (NKK, PAT-4A).

In order of falling “Platelet Aggregation-Inhibiting Activity” value:
1. COC(=O)C1=C(C)NC(C)=C(C(=O)NCC(=O)OC(C)(C)C)C1c1cccc([N+](=O)[O-])c1 (stereo not shown) [Example 3, t-butyl 2-[N-[1,4-dihydro-2,6-dimethyl-5-methoxycarbonyl-4-(3-nitrophenyl)pyridine-3-carbonyl]amino]acetate]  100%
2. COC(=O)C1=C(C)NC(C)=C(C(=O)NCC(=O)OC(C)(C)C)C1c1cccc(Cl)c1 (stereo not shown) [Example 32, t-butyl 2-[N-[1,4-dihydro-2,6-dimethyl-5-methoxycarbonyl-4-(3-chlorophenyl)pyridine-3-carbonyl]-amino]acetate]  100%
3. COC(=O)C1=C(C)NC(C)=C(C(=O)NCC(=O)OC(C)(C)C)C1c1cccc(C#N)c1 (stereo not shown) [Example 34, t-butyl 2-[N-[1,4-dihydro-2,6-dimethyl-5-methoxycarbonyl-4-(3-cyanophenyl)pyridine-3-carbonyl]-amino]acetate]  100%
4. CCOC(=O)C1=C(C)NC(C)=C(C(=O)NCC(=O)OC(C)(C)C)C1c1cccc([N+](=O)[O-])c1 (stereo not shown) [Example 36, t-butyl 2-[N-[1,4-dihydro-2,6-dimethyl-5-ethoxycarbonyl-4-(3-nitrophenyl)pyridine-3-carbonyl]-amino]acetate]  100%
5. CC1=C(C(=O)NCC(=O)OC(C)(C)C)C(c2cccc([N+](=O)[O-])c2)C(C(=O)OC(C)C)=C(C)N1 (stereo not shown) [Example 37, t-butyl 2-[N-[1,4-dihydro-2,6-dimethyl-5-isopropyloxycarbonyl-4-(3-nitrophenyl)pyridine-3-carbonyl]amino]acetate]  100%
6. COCCOC(=O)C1=C(C)NC(C)=C(C(=O)NCC(=O)OC(C)(C)C)C1c1cccc([N+](=O)[O-])c1 (stereo not shown) [Example 38, t-butyl 2-[N-[1,4-dihydro-2,6-dimethyl-5-(2-methoxyethyloxycarbonyl)-4-(3-nitrophenyl)pyridine-3-carbonyl]amino]acetate]  100%
7. COC(=O)C1=C(C)NC(C)=C(C(=O)NCC(=O)OC(C)C)C1c1cccc([N+](=O)[O-])c1 (stereo not shown) [Example 63, isopropyl 2-[N-[1,4-dihydro-2,6-dimethyl-5-methoxycarbonyl-4-(3-nitrophenyl)pyridine-3-carbonyl]-amino]acetate]  100%
8. COC(=O)C1=C(C)NC(C)=C(C(=O)NCC(=O)N[C@H](C(=O)OC(C)(C)C)C(C)C)C1c1cccc([N+](=O)[O-])c1 (stereo partly drawn) [Example 66, t-butyl 2-(S)-[N-[[N-[1,4-dihydro-2,6-dimethyl-5-methoxycarbonyl-4-(3-nitrophenyl)pyridine-3-carbonyl]amino]acetyl]amino]-3-methylbutylate]  100%
9. COC(=O)C1=C(C)NC(C)=C(C(=O)N[C@@H](C(=O)OC(C)(C)C)C(C)C)C1c1cccc([N+](=O)[O-])c1 (stereo partly shown) [2 (Compound b)]  98.2%
10. COC(=O)C1=C(C)NC(C)=C(C(=O)NCC(=O)OC(C)(C)C)C1c1ccccc1C#N (stereo not shown) [Example 33, t-butyl 2-[N-[1,4-dihydro-2,6-dimethyl-5-methoxycarbonyl-4-(2-cyanophenyl)pyridine-3-carbonyl]-amino]acetate]  94.2%
11. COC(=O)C1=C(C)NC(C)=C(C(=O)NCC(=O)N2CCCC2)C1c1cccc([N+](=O)[O-])c1 (stereo not shown) [Example 57, methyl 1,4-dihydro-2,6-dimethyl-4-(3-nitrophenyl)-5-[N-[(pyrrolidin-1-yl)carbonylmethyl]carbamoyl]pyridine-3-carboxylate]  64.5%
12. CCOC(=O)CNC(=O)C1=C(C)NC(C)=C(C(=O)OC)C1c1cccc([N+](=O)[O-])c1 (stereo not shown) [Example 62, ethyl 2-[N-[1,4-dihydro-2,6-dimethyl-5-methoxycarbonyl-4-(3-nitropheny1)pyridine-3-carbonyl]amino]-acetate]  64.3%
13. COC(=O)C1=C(C)NC(C)=C(C(=O)N[C@H](C(=O)OC(C)(C)C)C(C)C)C1c1ccccc1Cl (single isomer, unassigned) [7 (Compound a)]  54.1%
14. CCOC(=O)CCNC(=O)C1=C(C)NC(C)=C(C(=O)OC)C1c1cccc([N+](=O)[O-])c1 (stereo not shown) [Example 64, ethyl 3-[N-[1,4-dihydro-2,6-dimethyl-5-methoxycarbonyl-4-(3-nitrophenyl)pyridine-3-carbonyl]amino]-propionate]  52.6%
15. COCCOC(=O)CNC(=O)C1=C(C)NC(C)=C(C(=O)OC)C1c1cccc([N+](=O)[O-])c1 (stereo not shown) [Example 60]  47.2%
16. COC(=O)C1=C(C)NC(C)=C(C(=O)N[C@H](C(=O)OC(C)(C)C)C(C)C)C1c1cccc([N+](=O)[O-])c1 (single isomer, unassigned) [1 (Compound a)]  42.8%
17. CCOC(=O)CN(C)C(=O)C1=C(C)NC(C)=C(C(=O)OC)C1c1cccc([N+](=O)[O-])c1 (stereo not shown) [Example 65]  42.7%
18. CCOC(=O)C1=C(C)NC(C)=C(C(=O)N[C@H](C(=O)OC(C)(C)C)C(C)C)C1c1cccc([N+](=O)[O-])c1 (stereo partly drawn) [Example 48, t-butyl 2-(S)-[N-[1,4-dihydro-2,6-dimethyl-5-ethoxycarbonyl-4-(3-nitrophenyl)pyridine-3-carbonyl]amino]-3-methylbutylate]  41.5%
19. COC(=O)C1=C(C)NC(C)=C(C(=O)NCC(=O)OC(C)(C)C)C1c1ccccc1Cl (stereo not shown) [Example 8, t-butyl 2-[N-[1,4-dihydro-2,6-dimethyl-5-methoxycarbonyl-4-(2-chlorophenyl)pyridine-3-carbonyl]-amino]acetate]  39.1%
20. CC1=C(C(=O)N[C@H](C(=O)OC(C)(C)C)C(C)C)C(c2cccc([N+](=O)[O-])c2)C(C(=O)OC(C)C)=C(C)N1 (stereo partly shown) [Example 49]  38.9%
21. COC(=O)C1=C(C)NC(C)=C(C(=O)N[C@H](C(=O)OC(C)(C)C)C(C)C)C1c1ccccc1F (single isomer, unassigned) [13 (Compound a)]  37.7%
22. COC(=O)C1=C(C)NC(C)=C(C(=O)N[C@H](C(=O)OC(C)(C)C)C(C)C)C1c1cccc(F)c1 (single isomer, unassigned) [19 (Compound a)]  35.4%
23. COC(=O)C1=C(C)NC(C)=C(C(=O)N[C@H](C(=O)OC(C)(C)C)C(C)C)C1c1cccc(Cl)c1 (single isomer, unassigned) [18 (Compound a)]  33.8%
24. COC(=O)C1=C(C)NC(C)=C(C(=O)N[C@H](C(=O)OC(C)(C)C)C(C)C)C1c1cccc(OC)c1 (stereo partly drawn) [Example 23, t-butyl 2-(S)-[N-[1,4-dihydro-2,6-dimethyl-5-methoxycarbonyl-4-(3-methoxyphenyl)pyridine-3-carbonyl]-amino]-3-methylbutylate]  33.6%
25. COC(=O)C1=C(C)NC(C)=C(C(=O)N[C@H](C(=O)OC(C)(C)C)C(C)C)C1c1ccccc1[N+](=O)[O-] (single isomer, unassigned) [27 (Compound a)]  33.3%
26. COC(=O)C1=C(C)NC(C)=C(C(=O)NCC(=O)OC(C)(C)C)C1c1ccccc1C (stereo not shown) [Example 47, t-butyl 2-[N-[1,4-dihydro-2,6-dimethyl-5-methoxycarbonyl-4-(2-methylphenyl)pyridine-3-carbonyl]-amino]acetate]  32.7%
27. COC(=O)C1=C(C)NC(C)=C(C(=O)NCC(=O)OC(C)(C)C)C1c1cccc(C)c1 (stereo not shown) [Example 35, t-butyl 2-[N-[1,4-dihydro-2,6-dimethyl-5-methoxycarbonyl-4-(3-methylphenyl)pyridine-3-carbonyl]-amino]acetate]  32.3%
28. COC(=O)C1=C(C)NC(C)=C(C(=O)N[C@@H](C)C(=O)OC(C)(C)C)C1c1ccccc1Cl (stereo partly drawn) [Example 9, t-butyl 2-(S)-[N-[1,4-dihydro-2,6-dimethyl-5-methoxycarbonyl-4-(2-chlorophenyl)pyridine-3-carbonyl]amino]propionate]  29.8%
29. CC1=C(C(=O)NCC(=O)OC(C)(C)C)C(c2cccc([N+](=O)[O-])c2)C(C(=O)N[C@H](C(=O)OC(C)(C)C)C(C)C)=C(C)N1 (single isomer, unassigned) [52 (Compound a)]  29.2%
30. COC(=O)C1=C(C)NC(C)=C(C(=O)N[C@@H](C(=O)OC(C)(C)C)C(C)C)C1c1cccc([N+](=O)[O-])c1 (single isomer, unassigned) [2 (Compound a)]  25.5%
31. COC(=O)C1=C(C)NC(C)=C(C(=O)N[C@H](C(=O)OC(C)(C)C)C(C)C)C1c1ccccc1 (single isomer, unassigned) [24 (Compound a)]  24.3%
32. COCCOC(=O)C1=C(C)NC(C)=C(C(=O)N[C@H](C(=O)OC(C)(C)C)C(C)C)C1c1cccc([N+](=O)[O-])c1 (single isomer, unassigned) [50 (Compound a)]  23.5%
33. COC(=O)C1=C(C)NC(C)=C(C(=O)NCC(=O)N2CCN(c3ccccc3)CC2)C1c1cccc([N+](=O)[O-])c1 (stereo not shown) [Example 58, methyl 1,4-dihydro-2,6-dimethyl-4-(3-nitrophenyl)-5-[N-[(4-phenylpiperazinyl)carbonylmethyl]-carbamoyl]pyridine-3-carboxylate]  22.1%
34. COC(=O)C1=C(C)NC(C)=C(C(=O)N[C@H](C(=O)OC(C)(C)C)C(C)C)C1c1cccc(C#N)c1 (single isomer, unassigned) [22 (Compound a)]  20.2%
